Among the data in patent US10125126B2, “N-cycloalkyl-N-[(heterocyclylphenyl)methylene]-(thio)carboxamide derivatives” (BAYER CROPSCIENCE AG, priority 2012, dated 2018) are Efficacy and logP values, retold here.

One data set has as its system Alternaria brassicae. Briefly: In vivo preventive test on Alternaria brassicae (leaf spot on radish). The note with it: 500 ppm of active ingredient; radish plants; 6 days after contamination. Here is the method: In Vivo Preventive Test on Alternaria brassicae (Leaf Spot on Radish) […] Radish plants (“Pernod Clair” variety), sown in starter cups on a 50/50 peat soil pozzolana substrate and grown at 17° C., are treated at the cotyledon stage by spraying with the active ingredient prepared as described above. Plants, used as controls, are treated with the mixture of acetone/tween/DMSO/water not containing the active material. After 24 hours, the plants are contaminated by spraying the cotyledons with an aqueous suspension of Alternaria brassicae spores (50 000 spores per mL). The spores are collected from a 15-day-old culture. The contaminated radish plants are incubated at 20° C. and at 100% relative humidity. Grading (% of efficacy) is carried out 6 days after the contamination, in comparison with the control plants.

In a further data set the test system is Puccinia recondita. As to the kind of experiment: In vivo preventive test on Puccinia recondita (brown rust on wheat). The conditions noted are these: 500 ppm of active ingredient; wheat plants; 12 days after contamination. In short, it runs like this: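 Wheat plants ("Scipion") at 1-leaf stage, grown at 22° C, were sprayed with compound, then inoculated 24 h later with Puccinia recondita spores (100 000 spores per mL). Efficacy (%) graded 12 days after inoculation relative to solvent-treated controls.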

The nature of data set [1]: log P by HPLC on a reversed-phase column (C 18), EEC Directive 79/831 Annex V.A8. The format is physicochemical. The note with it: HPLC on reversed-phase column (C 18), 40° C., 0.1% aqueous formic acid and acetonitrile, linear gradient 10% to 90% acetonitrile. In short, it runs like this:
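Calibration relied on straight-chain alkan-2-ones with 3 to 16 carbon atoms and known log P, with sample values read by linear interpolation of retention time between two adjacent standards. Separation at 40° C used 0.1% aqueous formic acid with acetonitrile rising linearly from 10% to 90%. UV spectra from 200 nm to 400 nm at chromatographic peak maxima gave lambda-max.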

The next data set concerns Uromyces appendiculatus. Briefly: In vivo preventive test on Uromyces appendiculatus (bean rust). The conditions noted are these: 500 ppm of active ingredient; bean plants; 11 days after contamination. The method in brief:
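Saxa bean plants at 2-leaf stage, grown at 24° C., sprayed preventively with compound; 24 h later inoculated with U. appendiculatus spores (150 000 spores per mL). Percent efficacy graded 11 days after inoculation versus solvent-treated controls.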

Another data set relates to Pyrenophora teres. Briefly: In vivo preventive test on Pyrenophora teres (barley). The conditions noted are these: 500 ppm of active ingredient; barley plants; 14 days after contamination. The method in brief: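 Barley ("Plaisant") grown at 22° C was sprayed at the 1-leaf stage (10 cm) with active ingredient in acetone/tween/DMSO/water, with solvent-only controls. After 24 h, leaves were inoculated with Pyrenophora teres spores (12 000 spores per mL) from 12-day cultures. % efficacy versus controls graded 14 days post-contamination.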

A further data set concerns Septoria tritici. Briefly: In vivo preventive test on Septoria tritici (wheat). The conditions noted are these: 500 ppm of active ingredient; wheat plants; 24 days after contamination. In short, it runs like this:
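Scipion wheat grown at 22° C, sprayed at 1-leaf stage (10 cm); controls received acetone/tween/DMSO/water without active. Inoculated 24 h later with S. tritici spores (500 000/mL), held 72 h at 18° C, 100% RH, then 21 days at 90% RH. % efficacy vs controls scored 24 days post-inoculation.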

In a further data set the test system is Botrytis cinerea. Briefly: In vivo preventive test on Botrytis cinerea (grey mould). The note with it: 500 ppm of active ingredient; gherkin plants; 4 to 5 days after contamination. In short, it runs like this: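 Gherkin plants at cotyledon stage Z11 were sprayed with compound, then inoculated 24 h later with Botrytis cinerea spores (50 000 spores per mL in nutrient solution). Plants were kept at 17° C and 90% RH, and percent efficacy versus solvent-treated controls was graded 4 to 5 days after contamination.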

The test system of a further data set is Sphaerotheca fuliginea. As to the kind of experiment: In vivo preventive test on Sphaerotheca fuliginea (powdery mildew on cucurbits). The conditions noted are these: 500 ppm of active ingredient; gherkin plants; 12 days after contamination. The method in brief:
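Gherkin plants ("Vert petit de Paris") grown at 24 °C were sprayed at cotyledon stage Z11; controls received acetone/tween/DMSO/water without active. Inoculation 24 h later by spraying cotyledons with 100 000 spores/mL. Efficacy (%) graded 12 days post-contamination versus controls.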

Another data set has as its system Pyricularia oryzae. The format is in vivo. The conditions noted are these: 500 ppm of active ingredient; rice plants; 6 days after contamination.

One may read the logP as a log measure of how a compound divides between an organic and an aqueous phase. Low values mean a more hydrophilic compound, high ones a more lipophilic compound. As for `CC(C)c1ccc(-c2coc3ccccc23)cc1CN(C(=O)c1c(C(F)F)nn(C)c1F)C1CC1` [I.132], the Efficacy in the data set with Alternaria brassicae was 97%; in the data set with Puccinia recondita, 83%; in the data set with Uromyces appendiculatus, 77%; with Pyrenophora teres, 88%; in the data set with Septoria tritici it was 100%; in the data set with Botrytis cinerea, 99%. Besides, the figures for the Efficacy in the data set with Sphaerotheca fuliginea and in the data set on Pyricularia oryzae were 100% and 80%, respectively. The compound further registered a logP in data set [1] of 4.90.

On to `Cc1csc(-c2ccc(C(C)C)c(CN(C(=O)c3c(C(F)F)nn(C)c3F)C3CC3)c2)c1` [I.106], for which the Efficacy stood at 100% in the data set on Alternaria brassicae; 93% with Pyrenophora teres; 80% with Septoria tritici; 80% in the data set on Botrytis cinerea; 100% in the data set on Sphaerotheca fuliginea; 80% in the data set on Pyricularia oryzae. In [1], this compound came in with a logP of 4.93.
